Measurements taken from US20090099167A1, “Organic compounds” (Novartis Institutes for Biomedical Research, priority 2004, published 2009).

How the values were obtained:
human IGF-IR = biological target: T1, human IGF-IR (Homo sapiens, UniProt P08069); test: IGF-1R tyrosine kinase assay, GST-IGF-1R; type: biochemical; conditions: Table 5; read-out: IGF-1R, IC50 class
T1 construct: expresses the amino acid region 950-1337 of the mature peptide cytoplasmic domain of the human IGF-IR; made in house; host or cells: baculovirus (Bac-to-Bac)
T1 sequence (P08069 980-1367): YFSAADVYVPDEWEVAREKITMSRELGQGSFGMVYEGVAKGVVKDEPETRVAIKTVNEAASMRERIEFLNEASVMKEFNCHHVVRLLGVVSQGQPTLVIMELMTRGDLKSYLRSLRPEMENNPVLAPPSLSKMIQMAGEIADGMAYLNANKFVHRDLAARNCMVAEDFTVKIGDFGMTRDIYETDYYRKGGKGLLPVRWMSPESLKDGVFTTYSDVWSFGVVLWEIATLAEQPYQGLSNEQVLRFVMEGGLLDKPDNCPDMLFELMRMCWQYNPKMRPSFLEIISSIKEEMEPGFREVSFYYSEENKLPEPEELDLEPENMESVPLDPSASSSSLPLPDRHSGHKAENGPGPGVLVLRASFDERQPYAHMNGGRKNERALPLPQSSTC
Excerpt: The inhibition of IGF-1R and Ins-R can be determined as follows: The baculovirus donor vector pfbgx3IGFIRcd is used to generate a recombinant baculovirus that expresses the amino acid region 950-1337 of the mature peptide cytoplasmic domain of the human IGF-IR. To generate the cDNA fragment encoding the amino acid region 919-1343 of the intra-cytoplasmic kinase domain of the human insulin receptor, pC5hInsR is used. The fragments of the human IGF-IR and Ins-R are cloned, expressed and small-scale purified as a factor Xa-cleavable glutathione-S-transferase (GST)-fusion protein using the Bac-to-Bac™ system (GIBCO BRL) of recombinant baculovirus generation. Virus containing media is collected from the transfected cell culture and used for infection to increase its titer. Virus containing media obtained after two rounds of infection is used for large-scale protein expression. Cell extracts are prepared and loaded onto a glutathione-Sepharose (Pharmacia) column. After washing, the GST-tagged proteins are then eluted with a glutathione-containing buffer. Purified protein is stored at −70° C. in elution buffer. Tyrosine protein kinase assays with purified GST-IGF-1R and GST-ins-R are carried in a final volume of 30 μl containing 20 mM Tris-HCl, pH 7.6, 10 mM MgCl2, 0.01 mM Na3VO4, 1% DMSO, 1 mM DTT, 3 μg/ml poly(Glu,Tyr) 4:1 and 10 μM ATP (γ-[^33P]-ATP 0.1 μCi). The assay is performed in 96-well plates at ambient temperature for 20 min and terminated by addition of 25 μl 0.05 M EDTA pH 7.0. An aliquot of 40 μl is spotted with a multichannel dispenser on Whatman P81 membranes mounted in a Millipore Microtiter filter manifold connected to a low vacuum source. After elimination of liquid, the membrane is transferred to a sequence of 4 washing baths containing 0.5% H3PO4 and one with EtOH (shaking incubation for 10 min each), dried, mounted onto a Hewlett Packard TopCount manifold added 10 μl Microscint® and counted. Compounds of formula (I) show up to 90% inhibition of Ins-R at 10,000 nM, preferably between 60-90% inhibition. The inhibition of Tek can be determined as follows: The procedure of the expression, purification and assay these kinases has been described. Fabbro et al., Pharmacol. Ther. 82(2-3) 293-301 (1999). In brief, the glutathione S-transferase (GST) gene from the pAcG1 vector (Pharmingen) is excised with EcoRV and EcoRI and inserted into the cloning site of the Fast-Bac baculoviral vector (GIBCO) creating a 5530 bp vector with N-terminal cloning sites derived from the pAcG1 fusion vector (FBG0). The C-terminal cloning site may be any cloning site (from the Fast-Bac vector) downstream of the N-terminal cloning site used. N-terminally GST-fused (pAcG1, Pharmingen) KDR, Flt-1, Flk-1, Tek and PDGFR-β kinase domains are obtained from ProQinase, Freiburg, Germany. Tek is recloned into the FBG1 vector by EcoRI excision and ligation into EcoRI digested FBG1 (FBG1-Tek). The coding sequences for the whole cytoplasmic domain of c-Kit (aa 544-976) and c-Fms (aa 538-972) are amplified by PCR from human uterus and from human bone marrow cDNA libraries (Clontech), respectively. The amplified DNA fragments are fused to GST by cloning them into FBG1 as BamHI-EcoRI insertions, to yield FBG1-c-Kit and FBG1-c-Fms. Tek is recloned into the FBG0 transfer vector by EcoRI excision and ligation into EcoRI digested FBG0 (FBG-Tie2/Tek). FGFR-1 and c-met kinase domains are obtained by PCR from human A431 cells. N-terminal primers contain an overhanging EcoRI site, while C-terminal primers contain a XhoI site to aid cloning into the transfer vectors. After digestion of both the PCR fragments and FBG0 the cleavage products are gel-purified and ligated together to form the kinase constructs (FBG-Met, FBG-FGFR-1).

HER-1 = HER-1 (Homo sapiens, UniProt P00533); test: HER-1 kinase inhibition; type: biochemical; conditions: Table 5; read-out: HER-1, IC50 class
HER-1, sequence (P00533 25-1210, species assumed): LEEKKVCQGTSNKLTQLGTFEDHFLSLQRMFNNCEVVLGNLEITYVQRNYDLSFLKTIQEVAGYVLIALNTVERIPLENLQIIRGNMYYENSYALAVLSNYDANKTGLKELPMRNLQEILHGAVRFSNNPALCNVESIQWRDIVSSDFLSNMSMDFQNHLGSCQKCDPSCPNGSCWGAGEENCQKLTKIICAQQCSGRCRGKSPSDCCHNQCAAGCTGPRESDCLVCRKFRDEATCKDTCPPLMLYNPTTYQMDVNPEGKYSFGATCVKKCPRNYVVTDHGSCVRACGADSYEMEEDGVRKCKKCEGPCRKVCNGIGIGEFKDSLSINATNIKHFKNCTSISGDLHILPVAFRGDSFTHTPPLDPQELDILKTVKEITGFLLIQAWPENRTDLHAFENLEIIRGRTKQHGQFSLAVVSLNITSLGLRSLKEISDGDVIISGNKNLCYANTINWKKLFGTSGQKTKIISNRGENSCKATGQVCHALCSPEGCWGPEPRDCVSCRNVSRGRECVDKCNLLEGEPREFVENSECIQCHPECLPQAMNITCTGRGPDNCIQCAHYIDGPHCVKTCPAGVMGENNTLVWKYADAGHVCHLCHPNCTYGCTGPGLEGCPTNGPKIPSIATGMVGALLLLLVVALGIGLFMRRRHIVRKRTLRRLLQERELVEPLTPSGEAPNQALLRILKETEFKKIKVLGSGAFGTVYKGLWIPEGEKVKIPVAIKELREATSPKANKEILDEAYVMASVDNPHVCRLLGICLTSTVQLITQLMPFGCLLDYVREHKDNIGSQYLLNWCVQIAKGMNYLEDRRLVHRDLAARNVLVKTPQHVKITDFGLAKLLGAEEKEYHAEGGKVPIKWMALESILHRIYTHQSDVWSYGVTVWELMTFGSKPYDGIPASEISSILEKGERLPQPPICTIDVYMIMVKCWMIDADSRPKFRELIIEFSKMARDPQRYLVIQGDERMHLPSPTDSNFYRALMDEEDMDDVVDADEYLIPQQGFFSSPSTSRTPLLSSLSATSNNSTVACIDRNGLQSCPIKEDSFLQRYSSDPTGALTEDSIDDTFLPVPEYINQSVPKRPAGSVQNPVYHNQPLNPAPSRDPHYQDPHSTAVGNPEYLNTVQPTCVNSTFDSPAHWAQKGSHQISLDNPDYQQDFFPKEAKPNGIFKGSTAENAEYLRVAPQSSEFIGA

Compound	IC50 (human IGF-IR) [µM]	IC50 (HER-1) [µM]
CN1CCN(c2cccc(-c3cnn4c(N)c(Cc5ccccc5)cnc34)c2)CC1 [Example 91, 6-Benzyl-3-[3-(4-methyl-piperazin-1-yl)-phenyl]-pyrazolo[1,5-a]pyrimidin-7-ylamine]	> 10	> 10
Cc1nc2c(-c3cccc(N4CCN(CCO)CC4)c3)cnn2c(N)c1-c1ccc(F)c(Cl)c1 [Example 100, 2-(4-{3-[7-Amino-6-(3-chloro-4-fluoro-phenyl)-5-methyl-pyrazolo[1,5-a]pyrimidin-3-yl]-phenyl}-piperazin-1-yl)-ethanol]	> 10	> 10
Cc1nc2c(-c3ccc(N4CCN(C)CC4)cc3)cnn2c(N)c1-c1ccc(F)cc1 [Example 79, 6-(4-Fluoro-phenyl)-5-methyl-3-[4-(4-methyl-piperazin-1-yl)-phenyl]-pyrazolo[1,5-a]pyrimidin-7-ylamine]	> 10	1 to 10
Cc1nc2c(-c3cccc(N4C[C@@H](C)O[C@@H](C)C4)c3)cnn2c(N)c1-c1cccc(Cl)c1 [Example 89, 6-(3-Chloro-phenyl)-3-[3-((2R,6S)-2,6-dimethyl-morpholin-4-yl)-phenyl]-5-methyl-pyrazolo[1,5-a]pyrimidin-7-ylamine]	> 10	> 10
COc1ccc(-c2cnn3c(N)c(-c4ccc(F)c(Cl)c4)c(C)nc23)cc1OC [Example 94, 6-(3-Chloro-4-fluoro-phenyl)-3-(3,4-dimethoxy-phenyl)-5-methyl-pyrazolo[1,5-a]pyrimidin-7-ylamine]	> 10	> 10
Cc1nc2c(-c3cccc(N4CCN(C)CC4)c3)cnn2c(N)c1-c1ccc(F)c(F)c1 [Example 98, 6-(3,4-Difluoro-phenyl)-5-methyl-3-[3-(4-methyl-piperazin-1-yl)-phenyl]-pyrazolo[1,5-a]pyrimidin-7-ylamine]	> 10	> 10
COc1cc(N2CCN(C)CC2)ccc1-c1cnn2c(N)c(-c3cccc(O)c3)cnc12 [Example 76, 3-{7-Amino-3-[2-methoxy-4-(4-methyl-piperazin-1-yl)-phenyl]-pyrazolo[1,5-a]pyrimidin-6-yl}-phenol]		< 1
Cc1nc2c(-c3cccc(N4CCC(N5CCCC5)CC4)c3)cnn2c(N)c1-c1ccc(F)cc1 [Example 103, 6-(4-Fluoro-phenyl)-5-methyl-3-[3-(4-pyrrolidin-1-yl-piperidin-1-yl)-phenyl]-pyrazolo[1,5-a]pyrimidin-7-ylamine]	> 10	> 10
Cc1nc2c(-c3ccc(N4CCN(C)CC4)cc3)cnn2c(N)c1-c1ccc(F)c(Cl)c1 [Example 83, 6-(3-Chloro-4-fluoro-phenyl)-5-methyl-3-[4-(4-methyl-piperazin-1-yl)-phenyl]-pyrazolo[1,5-a]pyrimidin-7-ylamine]	> 10	> 10
Cc1nc2c(-c3cccc(N4CCC(N5CCCC5)CC4)c3)cnn2c(N)c1-c1cccc(Cl)c1 [Example 102, 6-(3-Chloro-phenyl)-5-methyl-3-[3-(4-pyrrolidin-1-yl-piperidin-1-yl)-phenyl]-pyrazolo[1,5-a]pyrimidin-7-ylamine]	> 10	> 10
Cc1nc2c(-c3cccc(N4CCN(C)CC4)c3)cnn2c(N)c1-c1ccc(F)c(Cl)c1 [Example 82, 6-(3-Chloro-4-fluoro-phenyl)-5-methyl-3-[3-(4-methyl-piperazin-1-yl)-phenyl]pyrazolo[1,5-a]pyrimidin-7-ylamine]	> 10	> 10
COc1ccc(-c2cnn3c(N)c(-c4ccc(F)cc4)c(C)nc23)cc1 [Example 96, 6-(4-Fluoro-phenyl)-3-(4-methoxy-phenyl)-5-methyl-pyrazolo[1,5-a]pyrimidin-7-ylamine]	> 10	1 to 10
Cc1nc2c(-c3cccc([N+]4([O-])CC[N+](C)([O-])CC4)c3)cnn2c(N)c1-c1ccc(F)cc1 (stereo not drawn) [Example 107, 6-(4-Fluoro-phenyl)-5-methyl-3-[3-(4-methyl-1,4-dioxy-piperazin-1-yl)-phenyl]-pyrazolo[1,5-a]pyrimidin-7-ylamine]	> 10	> 10
COc1ccc(-c2cnn3c(N)c(-c4ccc(F)c(F)c4)c(C)nc23)cc1OC [Example 99, 6-(3,4-Difluoro-phenyl)-3-(3,4-dimethoxy-phenyl)-5-methyl-pyrazolo[1,5-a]pyrimidin-7-ylamine]	> 10	> 10
Cc1nc2c(-c3ccc(N4CCN(C)CC4)cc3)cnn2c(N)c1-c1cccc(Cl)c1 [Example 73, 6-(3-Chloro-phenyl)-5-methyl-3-[4-(4-methyl-piperazin-1-yl)-phenyl]-pyrazolo[1,5-a]pyrimidin-7-ylamine]	> 10	1 to 10
COc1ccc(-c2cnn3c(N)c(-c4cccc(Cl)c4)c(CF)nc23)cc1OC [Example 92, 6-(3-Chloro-phenyl)-3-(3,4-dimethoxy-phenyl)-5-fluoromethyl-pyrazolo[1,5-a]pyrimidin-7-ylamine]	> 10	> 10
Cc1nc2c(-c3cccc(N4CCN(CCO)CC4)c3)cnn2c(N)c1-c1cccc(Cl)c1 [Example 90, 2-(4-{3-[7-Amino-6-(3-chloro-phenyl)-5-methyl-pyrazolo[1,5-a]pyrimidin-3-yl]-phenyl}-piperazin-1-yl)-ethanol]	> 10	> 10
CN1CCN(c2cccc(-c3cnn4c(N)c(-c5cccc(Br)c5)cnc34)c2)CC1 [Example 86, 6-(3-Bromo-phenyl)-3-[3-(4-methyl-piperazin-1-yl)-phenyl]-pyrazolo[1,5-a]pyrimidin-7-ylamine]	> 10	> 10
CN1CCN(c2cccc(-c3cnn4c(N)c(Cc5cccc(Br)c5)cnc34)c2)CC1 [Example 85, 6-(3-Bromo-benzyl)-3-[3-(4-methyl-piperazin-1-yl)-phenyl]pyrazolo[1,5-a]pyrimidin-7-ylamine]	> 10	> 10
Cc1nc2c(-c3cccc(N4CCN(C5CCN(C)CC5)CC4)c3)cnn2c(N)c1-c1cccc(Cl)c1 [Example 81, 6-(3-Chloro-phenyl)-5-methyl-3-{3-[4-(1-methyl-piperidin-4-yl)-piperazin-1-yl]-phenyl}-pyrazolo[1,5-a]pyrimidin-7-ylamine]	< 1	> 10
Cc1nc2c(-c3cccc(N4CC[N+](C)([O-])CC4)c3)cnn2c(N)c1-c1ccc(F)cc1 [Example 106, 6-(4-Fluoro-phenyl)-5-methyl-3-[3-(4-methyl-4-oxy-piperazin-1-yl)-phenyl]-pyrazolo[1,5-a]pyrimidin-7-ylamine]	> 10	> 10
COc1ccc(-c2cnn3c(N)c(-c4cccc(Cl)c4)c(C)nc23)cc1 [Example 88, 6-(3-Chloro-phenyl)-3-(4-methoxy-phenyl)-5-methyl-pyrazolo[1,5-a]pyrimidin-7-ylamine]	> 10	> 10
Cc1nc2c(-c3cccc(N4CCOCC4)c3)cnn2c(N)c1-c1cccc(Cl)c1 [Example 87, 6-(3-Chloro-phenyl)-5-methyl-3-(3-morpholin-4-yl-phenyl)-pyrazolo[1,5-a]pyrimidin-7-ylamine]	> 10	> 10
